Literature values as cited in PMC7321301, “Characteristics of New Peptides GQLGEHGGAGMG, GEHGGAGMGGGQFQPV, EQGFLPGPEESGR, RLARAGLAQ, YGNPVGGVGH, and GNPVGGVGHGTTGT as Inhibitors of Enzymes Involved in Metabolic Syndrome and Antimicrobial Potential” (Molecules, 2020).
Like-named read-outs stand apart in the source and are kept apart here. No end group written: not given here.

What was measured:
ACE = details: cited from earlier work
α-amylase = details: no reference given; cited from earlier work

Molecule: C[C@H](CS)C(=O)N1CCC[C@H]1C(=O)O [Captropril]
- type of ACE inhibition (ACE): competitive inhibitor

Molecule: C[C@H]1O[C@H](O[C@H]2[C@H](O)[C@@H](O)[C@@H](O[C@H]3[C@H](O)[C@@H](O)C(O)O[C@@H]3CO)O[C@@H]2CO)[C@H](O)[C@@H](O)[C@@H]1N[C@H]1C=C(CO)[C@@H](O)[C@H](O)[C@H]1O (stereo partly shown) [acarbose]
- type of α-amylase inhibition (α-amylase): competitive inhibition

Molecule: AFKDEDTEEVPFR
- ACE inhibitory IC50 (ACE): 127 µg/mL

Molecule: GKHVAVHAR [GHA-8]
- ACE inhibitory activity (ACE): exhibited ACE inhibitory activity

Molecule: GKPVAVPA [GA-8]
- ACE inhibitory activity (ACE): exhibited ACE inhibitory activity

Molecule: TTFHTSGY
- type of ACE inhibition (ACE; inhibition kinetic analysis): competitive inhibitor

Molecule: Thα1: peptide Thα1, ACE inhibitory, from another study (SDAAVDTSSEITTKDLKEKKEVVEEAEN; ends and bridges not checked; UniProt P06454 2-29, looked up)
- ACE inhibitory IC50 (ACE): 2.5 µg/mL
